Patent US20090317457A1, “ANTI-INFLAMMATORY AND WOUND HEALING EFFECTS OF LYMPHOID THYMOSIN B-4” (Yale University, priority 2002, published 2009)
“And” between values parts separate entries of the source, which are not always exact repeats. Equal entries are not always repeated.

Tests used:
[1] = tested on: TPA-induced irritant contact dermatitis of ear skin; assay: TPA irritant contact dermatitis (ICD) ear swelling assay; assay type: in vivo, BALB/c and FVB mice; details: for ear swelling: 6 h, unit not given; for TPA Ear Thickness (+/− SE): increase over baseline
Procedure: Experimental groups of 8-10 female BALB/c and FVB mice, 8-10 weeks of age, were housed in temperature controlled rooms and given food and water ad libitum. Observations and measurements were made by an investigator blinded to the experimental group.
After measuring the baseline ear thickness, naïve mice were injected intraperitoneally (IP) with either 100 μl of PBS, or 100 μl of 3.50×10^−5 M peptide solution (oxidized mTβ4 (“mTβ4-so”), or oxidized mLTβ4 (“mLTβ4-so”) [n=10 per group]). 30 minutes later, mice were injected intradermally with 40 μl of either PBS or 8.75×10^−5 M solution of the appropriate peptide in both ears. One minute later, 40 nmol TPA (in 10 μl acetone) was applied to the anterior side of each ear. 6 h. and 24 h. after the topical application of TPA, the ears were re-measured, and the increases in ear thickness between baseline and 6 h. and between baseline and 24 h. calculated. For each mouse, increases in right and left ear thickness were averaged.
Statistics. Groups were compared for differences in the meaning using a one-tailed Student's t test; p<0.05 was considered statistically significant.

[2] = tested on: DNFB-induced allergic contact dermatitis of ear skin; assay: DNFB allergic contact dermatitis (ACD) ear swelling assay; assay type: in vivo, FVB mice; details: for ear thickness: unit not given
Procedure: Experimental groups of 8-10 female FVB mice, 8-10 weeks of age, were housed in temperature controlled rooms and given food and water ad libitum. Observations and measurements were made by an investigator blinded to the experimental group. Mice were sensitized on day 0 by epicutaneous application to razor-shaved abdominal skin of 25 μl of 0.5% DNFB in a mixture of acetone:olive oil (4:1). Before the challenge with DNFB, mice were injected (i) intraperitoneally with 100 μl of 3.50×10^−5 M thymosin peptide solution (30 minutes before DNFB) and (ii) intradermally with 40 μl of 8.75×10^−5 M peptide solution in both ears (1 min prior to DNFB challenge). On day 5, after measuring baseline ear thickness with an engineer's micrometer, mice were challenged by applying 10 μl of 0.2% DNFB in acetone:olive oil to each side of each ear. Ears were re-measured 6 h., 24 h., and 48 h. after challenge, and data expressed as the response above baseline (i.e., ear thickness 24 h. after challenge minus ear thickness immediately prior to challenge)±1 standard error of the mean (S.E.). For each mouse, increases in right and left ear thickness were averaged. The experiment was repeated twice. Statistics. Groups were compared for differences in the meaning using a one-tailed Student's t test; p<0.05 was considered statistically significant.

[3] = tested on: λ-carrageenan induced neutrophil mediated inflammation of the footpad; assay: λ-carrageenan-induced footpad inflammation (footpad swelling); assay type: in vivo, BALB/c mice; details: for Footpad Thickness (+/− SE): oxidised peptide
Procedure: Experimental groups of 8-10 female BALB/c mice, 8-10 weeks of age, were housed in temperature controlled rooms and given food and water ad libitum. Observations and measurements were made by an investigator blinded to the experimental group. λ-Carrageenan injection. After measuring the baseline thickness of the hind footpads with a spring-loaded engineer's micrometer, mice were injected subcutaneously in both hind paws with 340 μg of λ-carrageenan in 40 μl. 6 h., 24 h., and 48 h. after the injection of λ-carrageenan, footpads were re-measured and swelling calculated by subtracting the baseline from the experimental measurements. For each mouse, increases in right and left footpad thickness were averaged. Thymosin peptides were injected as previously described [reference 8]: (i) intraperitoneally with 100 μl of 3.50×10^−5 M peptide solution, 30 minutes before footpad injection; (ii) intradermally into the footpad with 40 μl of 8.75×10^−5 M peptide solution and λ-carrageenan at time 0, and (iii) intraperitoneally with 100 μl of 3.50×10^−5 M peptide solution, 6 h. after footpad injection. For each group, the mean increase in footpad thickness was calculated, and compared to other groups using a one-tailed Student's t-test. The experiment was repeated four times. Statistics. Groups were compared for differences in the meaning using a one-tailed Student's t test; p<0.05 was considered statistically significant.

[4] = tested on: human umbilical vein endothelial cells (HUVEC); assay: Endothelial scratch wound assay; assay type: cell-based; details: for % Closure (+/− SE %): 2.0×10^-7 M peptide, ECGS 200 μg
Excerpt: The endothelial “scratch wound assay” was utilised to test the effects of mUTβ4 and mLTβ4 on the migration of endothelial cells in vitro, as described in […] et al. (1997) Thymosin beta 4 accelerates wound healing. J Invest Dermatol. 1999 September; 113(3):364-8 and Young et al., (1999) Thymosin b 4 sulfoxide is an anti-inflammatory agent generated by monocytes in the presence of glucocorticoids. Nature Medicine. 5:1424-1427. HUVECs were obtained from the Endothelial Cell Culture Core Laboratory of the Yale Skin Diseases Research Core Center (Dr. M. Kluger). Passage 3 was used, and plated at a density of 9.5×10^4 cells per well. Cells were grown to 90% confluence in 24 well plates (Corning/Costar), in M-199 media supplemented with 20% FBS, antibiotics, and endothelial cell growth supplement (ECGS). A scratch was made along the diameter of each well with a sterile blue 1 ml pipette tip (Falcon). Cells were then rinsed in MEM buffer. Thymosin peptide was added to the cells in media lacking ECGS but containing 10 mM thymidine to inhibit cell proliferation. In the experimental groups, HUVECs were given 2.0×10^-7 M peptide solution of mUTb4, or in LTb4. Control groups consisted of saline (negative control) and 200 mg of ECGS (positive control). The plates were incubated at 37° C., fixed in 2% paraformaldehyde, and stained with crystal violet at time points 9 h. and 24 h. The scratch width was measured using a microscope with a 4× objective lens connected to a digital camera and then analyzed using Scion Image 1.62 software. The percent closure of the 9 h. and 24 h. measurements was calculated by dividing by the original wound width at time zero in square pixels. For each group, the mean percent closure was calculated, based on 4 images per well, 4 wells per group.

N-MSDKPDMAEIEKFDKSKLKKTETQEINPL-PSIETIEQEKQAGES-C (SEQ ID NO:2) [mUTβ4]
ear swelling [1]: 24.10±1.83 | suppression of inflammation relative to PBS-treated controls ([1]; 6 h post-application of TPA): 21% | suppression of inflammation relative to PBS-treated controls ([1]; 24 h post-application of TPA): 13% | TPA Ear Thickness (+/− SE) ([1]; six hours after TPA, listed as mTβ4): 24.10 ± 1.83 mm and 18.00 ± 1.58 mm | TPA Ear Thickness (+/− SE) ([1]; twenty-four hours after TPA, listed as mTβ4-so): 19.00 ± 1.83 mm and 16.75 ± 1.79 mm | suppression of ACD ear swelling response relative to PBS ([2]; 72 h): 29% | DNFB Ear Thickness (+/− SE) ([2]; Methionated Thymosin Experiment, forty-eight hours after challenge, listed as mTβ4-so): 18.39 ± 1.67 mm and 15.11 ± 0.37 mm | DNFB Ear Thickness (+/− SE) ([2]; Methionated Thymosin Experiment, six hours after challenge, listed as mTβ4-so): 5.18 ± 0.78 mm and 4.39 ± 1.08 mm | DNFB Ear Thickness (+/− SE) ([2]; Methionated Thymosin Experiment, twenty-four hours after challenge, listed as mTβ4-so): 20.25 ± 1.54 mm and 16.75 ± 0.48 mm | suppression of footpad inflammation relative to PBS ([3]; 6 h): 29% | suppression of footpad inflammation relative to PBS ([3]; 24 h): 45% | suppression of footpad inflammation relative to PBS ([3]; 48 h): 38% | Footpad Thickness (+/− SE) ([3]; Methionated Thymosin Experiment (B), forty-eight hours after λ-carrageenan, listed as mTβ4-so): 0.51 ± 0.02 mm and 0.55 ± 0.03 mm | Footpad Thickness (+/− SE) ([3]; Methionated Thymosin Experiment (B), six hours after λ-carrageenan, listed as mTβ4-so): 0.36 ± 0.06 mm and 0.51 ± 0.05 mm | Footpad Thickness (+/− SE) ([3]; Methionated Thymosin Experiment (B), twenty-four hours after λ-carrageenan, listed as mTβ4-so): 0.38 ± 0.01 mm and 0.28 ± 0.04 mm | % Closure (+/− SE %) ([4]; nine hours, listed as mTβ4): 24% and 24.0 ± 1.1% | % Closure (+/− SE %) ([4]; twenty-four hours, listed as mTβ4): 21% and 21.0 ± 1.5% | % Closure (+/− SE %) ([4]; twenty-four hours, listed as mTβ4-so): 21.0±1.5%

N-MLLPATMSDKPDMAEIEIFDKSKILITE-TQEKNPLPSKETIEQEKQAGES-C (SEQ ID NO:9) (MLLPATMSDKPDMAEIEKFDKSKLKKTETQEKNPLPSKETIEQEKQAGES; listed as Homo sapiens) [mLTβ4, N-terminal methionated lymphoid thymosin-β4, chemically synthesised]
ear swelling [1]: 18.00±1.58 | suppression of inflammation relative to PBS-treated controls ([1]; 6 h post-application of TPA): 41% | suppression of inflammation relative to PBS-treated controls ([1]; 24 h post-application of TPA): 24% | suppression of TPA-induced ear swelling (FIG. 3) ([1]; vs PBS at 6 h and 24 h, vs mUTβ4 at 6 h): significantly more than PBS | suppression of ACD ear swelling response relative to PBS ([2]; 6 h): 37% | suppression of ACD ear swelling response relative to PBS ([2]; 24 h): 27% | ear swelling response relative to mice that received PBS or mUTβ4 (FIG. 4B) ([2]; 24 h and 72 h): significant reduction in ear swelling response | suppression of ACD ear swelling response relative to PBS ([2]; 72 h): 42% | suppression of footpad inflammation relative to PBS ([3]; 6 h): 50% | footpad swelling compared with mice receiving PBS or mUTβ4 (FIG. 2B) ([3]; 6 h and 24 h): significantly reduced footpad swelling | suppression of footpad inflammation relative to PBS ([3]; 24 h): 59% | suppression of footpad inflammation relative to PBS ([3]; 48 h): 34% | % Closure (+/− SE %) ([4]; nine hours): 27.2 ± 1.6% | % Closure (+/− SE %) ([4]; nine hours, listed as mLβ): 27.2% | more closure than mTβ4-so ([4]; twenty four hours): 15.3% | % Closure (+/− SE %) ([4]; twenty-four hours): 37.3 ± 4.4% | % Closure (+/− SE %) ([4]; twenty-four hours, listed as mLβ): 37.3% | effect on migration of HUVEC to close an artificial wound (FIG. 5) ([4]; vs PBS at 9 h and 24 h, vs mUTβ4 at 24 h): significantly greater than PBS

N-LLPATMSDKPDMAEIEKFDKSKLKKTE-TQEKNPLPSKETIEQEKQAGES-C (SEQ ID NO:8) (LLPATMSDKPDMAEIEKFDKSKLKKTETQEKNPLPSKETIEQEKQAGES; listed as Homo sapiens) [LTβ4, lymphoid thymosin-β4 polypeptide, un-methionated form, chemically synthesised]
suppression of ACD ear swelling response relative to PBS ([2]; 6 h): 17% | ear swelling response compared to mice receiving PBS or UTβ4 (FIG. 4A) ([2]; 6 h, 24 h and 72 h after challenge): significant reduction in ear swelling response | suppression of ACD ear swelling response relative to PBS ([2]; 24 h): 21% | suppression of ACD ear swelling response relative to PBS ([2]; 72 h): 24% | DNFB Ear Thickness (+/− SE) ([2]; Un-Methionated Thymosin Experiment, forty-eight hours after challenge): 15.45 ± 0.91 .01 mm | DNFB Ear Thickness (+/− SE) ([2]; Un-Methionated Thymosin Experiment, six hours after challenge): 7.83 ± 0.61 .01 mm | DNFB Ear Thickness (+/− SE) ([2]; Un-Methionated Thymosin Experiment, twenty-four hours after challenge): 18.98 ± 0.74 .01 mm | thinner ears than uTβ4-so treated mice ([2]; seventy-two hours): 22% | ear thickness ([2]; seventy-two hours): 15.45±0.91 | thinner ears than uTβ4-so treated mice ([2]; six hours): 21% | ear thickness ([2]; six hours): 7.83±0.61 | thinner ears than uTβ4-so treated mice ([2]; twenty-four hours): 16% | ear thickness ([2]; twenty-four hours): 18.98±0.74 | suppression of footpad inflammation relative to PBS ([3]; 6 h): 21% | footpad swelling compared with mice receiving PBS or UTβ4 (FIG. 2A) ([3]; 24 h): significantly reduced footpad swelling | suppression of footpad inflammation relative to PBS ([3]; 24 h): 58% | footpad thickness ([3]; 24 h, unit not given): 0.22±0.03 | suppression of footpad inflammation relative to PBS ([3]; 48 h): 42% | Footpad Thickness (+/− SE) ([3]; Un-Methionated Thymosin Experiment (A), forty-eight hours after λ-carrageenan): 0.34 ± 0.04 mm | Footpad Thickness (+/− SE) ([3]; Un-Methionated Thymosin Experiment (A), six hours after λ-carrageenan, increase over baseline): 0.47 ± 0.04 mm | Footpad Thickness (+/− SE) ([3]; Un-Methionated Thymosin Experiment (A), twenty-four hours after λ-carrageenan): 0.22 ± 0.03 mm
